# Read-outs that look alike come from different tables or passages of the source.
# Tests used:
# Y79 cell line = experiment: Retinoblastoma cell proliferation inhibition assay (Cell Titer Glo, 72 hour incubation); assay type: cell-based, human
# BJ cell line [1] = conditions: BJ cell line (normal fibroblast), 72 hour incubation
# [2] = system: WERI cell line (WERI-Rb1); experiment: Retinoblastoma cell proliferation inhibition assay (Cell Titer Glo, 72 hour incubation); assay type: cell-based, human
# [3] = Ocular pharmacokinetic study, suprachoroidal administration of micelle formulation, tissue concentration by LCMS; assay type: in vivo, New Zealand White rabbits; conditions: 25 μg dose, micellular formulation, rabbit
# Source text: Both solutions were filter sterilized by passage through a sterile 0.2 micron nylon syringe filter into a sterile vial to produce a sterile formulation. The mixture was vortex mixed to produce a micelle suspension. […] A flexible catheter with 250 micron OD and 140 micron ID was surgically introduced into the suprachoroidal space in the anterior region of the eye at the pars plana. The catheter was advanced posteriorly toward the posterior region of the suprachoroidal space. The catheter was configured to conduct light and provided illumination of the catheter tip and shaft to determine the catheter position and configuration by trans-scleral visualization. The illuminated tip of the catheter was used to position the catheter in the posterior region of the suprachoroidal space. The illuminated shaft of the catheter was used to manipulate and position the catheter to direct the injection toward the posterior region of the space. […] The eyes were examined by slit lamp in the anterior segment and by indirect ophthalmoscopy in the posterior segment prior to euthanasia for each time point at 1, 3, 7, 14 days post administration.
# [4] = system: Human retinoblastoma tumour cells, Y79; experiment: Retinoblastoma in vivo model, retinoblastoma cell area on the retina by histology; set-up: species or system rabbits; conditions: for retinoblastoma cell areas from both H&E staining and antibody staining: culled at 5 weeks; for reduction in retinoblastoma cells in the eyes as compared to sham: p<0.01
# Procedure: Human retinoblastoma tumour cells, Y79 (ATCC@ HTB-18), were grown in media consisting of RPMI 1640 containing 20% FBS, L-glutamine 200 mM (100×), penicillin/streptomycin 5,000 U/ml and amphotericin B 250 μg/ml, to a target suspension density of 3×10^5 cells/flask in 20 ml of media in a T75 flask. Thirty-two eyes in 16 immunosuppressed rabbits were inoculated with 200,000 cells in 30 μl of serum free media to the posterior retinal surface by intravitreal injection. The animals were studied in 4 groups of 8 eight eyes. Two groups were administered topotecan prepared in 30 μl of sterile saline injected intravitreally through a 29 gauge needle in the posterior region of the vitreous cavity near the tumour cells. One topotecan group was administered a 10 μg dose and a second group administered a 50 μg dose. The topotecan groups were administered the active agent formulation at 2, 3 and 4 weeks after tumour cell inoculation. […] A fourth group was treated with a sham injection of 30 μl sterile saline through a 29 gauge needle in the posterior region of the vitreous near the tumour cells at 2, 3 and 4 weeks after tumour cell inoculation. All animals were culled at 5 weeks to allow processing of the retina and retinoblastoma tumour cells on the retina for histological examination. Macro photography of the flat mounted retinae recorded tumour cell survival on the retinae and then representative sections were removed for fixation and subsequent processing for histology. All samples were cut at 5 μm and stained by H&E and replicate slides stained with human mitochondrial marker antibody to positively identify the human retinoblastoma cells. Slides were then scanned using a slide scanner (Histech or Hamamatsu S360) and retinoblastoma cell area on the retina quantified using CaseViewer software.
# Representative histology images are shown in FIG. 4 with arrows indicating the retinoblastoma cells on the retina.
# BJ cell line [5] = experiment: cells; conditions: Homo sapiens, 72 h
structure (smiles),measurement,setting,value
Cc1cc2c(C(=O)NC[C@H](C)c3ccccc3)c(O)c(O)cc2c(O)c1-c1c(C)cc2c(C(=O)NC[C@H](C)c3ccccc3)c(O)c(O)cc2c1O [Sabutoclax],EC50,Y79 cell line,316 nM
same,EC50,BJ cell line [1],> 3650 nM
same,EC50,[2],211 nM
CC(C)c1ccccc1Cc1cc(C(=O)Nc2ccc(S(=O)(=O)c3ccccc3C(C)(C)C)cc2)c(O)c(O)c1O [TW-37],EC50,Y79 cell line,335 nM
same,EC50,BJ cell line [1],> 8760 nM
same,EC50,[2],278 nM
same,choroid concentration at 14 days,[3],near baseline
same,level of TW-37 in the vitreous,[3],relatively low levels
same,retina concentration at 14 days,[3],near baseline
same,time of peak concentration in the choroid,[3],3 days
same,time of peak concentration in the retina,[3],7 days
same,tissue exposure of TW-37 to the target retina after a single administration,[3],14 days
same,retinoblastoma cell areas from both H&E staining and antibody staining,[4]; 10 μg in DMSO intravitreal at 3 and 4 weeks after inoculation,lower compared to sham
same,reduction in retinoblastoma cells in the eyes as compared to sham,[4]; 10 μg intravitreal at 3 and 4 weeks,statistically significant reduction
CC[C@@]1(O)C(=O)OCc2c1cc1n(c2=O)Cc2cc3c(CN(C)C)c(O)ccc3nc2-1 [Topotecan],EC50,Y79 cell line; Homo sapiens,69 nM
same,EC50,[2]; Homo sapiens,39 nM
same,EC50,BJ cell line [5],> 2570 nM
same,retinoblastoma cell areas from both H&E staining and antibody staining,"[4]; 10 μg intravitreal at 2, 3 and 4 weeks after inoculation",lower compared to sham
same,retinoblastoma cell areas from both H&E staining and antibody staining,"[4]; 50 μg intravitreal at 2, 3 and 4 weeks after inoculation",lower compared to sham
same,reduction in retinoblastoma cells in the eyes as compared to sham,[4]; high dose (50 μg) intravitreal,statistically significant reduction
O=C(CCCCCCC(=O)Nc1ccccc1)NO [Vorinostat],EC50,BJ cell line [5],> 54400 nM
